In patent US20240425898A1, “BACTERIA CLASSIFICATION AND ANALYSIS” (SYSMEX ASTREGO AB, priority 2023, published 2024):

Test system: bacteria in the urine sample
Assay: Gram classification by treatment impact in microfluidic device (FIGS. 10 to 13)
Format: cell-based, Escherichia coli
Settings: LIN 4 μg/ml and VAN 32 μg/ml at T1=25 min; NaCl 340 mM at 10-22 min
Excerpt: In this embodiment, bacterial cells from a biological sample are exposed to four different treatments (Tr1 to Tr4). […] The combination of LIN/VAN in the first treatment Tr1 is generally effective against gram-positive bacteria but has no or little antibacterial activity against gram-negative bacteria. […] AMC used in the third treatment Tr3 has broad antibacterial activity against both gram-positive and gram-negative bacteria. It, though, generally has slower antibacterial activity against Staphylococcus as compared to against Enterococcus. FOS used in the fourth treatment Tr4 has a broad antibacterial activity against both gram-positive and gram-negative bacteria. It, though, generally has a slower antibacterial activity against Staphylococcus as compared to against Enterococcus. Bacterial cells from the biological sample are preferably exposed to respective treatment in parallel. In this example, a respective impact parameter is determined for each treatment after a respective treatment period (T1 to T5) and then compared to a respective cutoff or threshold value. The respective treatment periods T1 to T5 could be the same but are typically different and adapted to the particular antimicrobial agent or mixture or salt or salt mixture. […] A urine sample was loaded into the microfluidic device 5 and bacterial growth was monitored in the different sets 130 of cell channels. […]

## [Cl-].[Na+] [NaCl, sodium chloride]
  candidate gram classification indicated by treatment: gram negative
